Here are results for 27 compounds from ChEMBL document CHEMBL2331395, “Natural product coumarins that inhibit human carbonic anhydrases” (Bioorg Med Chem, 2013).

Bounds are passed on as bounds.

In general, Ki refers to the equilibrium dissociation constant of an inhibitor or competing ligand from its target. Low readings indicate a stronger hold on the target, high ones a looser hold on the target.

One assay concerns the target Carbonic anhydrase 9 (Homo sapiens, UniProt Q16790). Nature of the assay: Inhibition of human carbonic anhydrase 9 preincubated for 6 hrs by CO2 hydration stopped-flow assay.
The target of a further assay is Carbonic anhydrase 2 (Homo sapiens, UniProt P00918). Put plainly: Inhibition of human carbonic anhydrase 2 preincubated for 6 hrs by CO2 hydration stopped-flow assay.
A further assay deals with Carbonic anhydrase 13 (Homo sapiens, UniProt Q8N1Q1). Put plainly: Inhibition of human carbonic anhydrase 13 preincubated for 6 hrs by CO2 hydration stopped-flow assay.
For another assay, the target named is Carbonic anhydrase 12 (Homo sapiens, UniProt O43570). Put plainly: Inhibition of human carbonic anhydrase 12 preincubated for 6 hrs by CO2 hydration stopped-flow assay.
In another assay the target is Carbonic anhydrase 7 (Homo sapiens, UniProt P43166). Put plainly: Inhibition of human carbonic anhydrase 7 preincubated for 6 hrs by CO2 hydration stopped-flow assay.
Another assay has as its target Carbonic anhydrase 1 (Homo sapiens, UniProt P00915). Put plainly: Inhibition of human carbonic anhydrase 1 preincubated for 6 hrs by CO2 hydration stopped-flow assay.

Sequence of Carbonic anhydrase 1 (P00915 whole entry): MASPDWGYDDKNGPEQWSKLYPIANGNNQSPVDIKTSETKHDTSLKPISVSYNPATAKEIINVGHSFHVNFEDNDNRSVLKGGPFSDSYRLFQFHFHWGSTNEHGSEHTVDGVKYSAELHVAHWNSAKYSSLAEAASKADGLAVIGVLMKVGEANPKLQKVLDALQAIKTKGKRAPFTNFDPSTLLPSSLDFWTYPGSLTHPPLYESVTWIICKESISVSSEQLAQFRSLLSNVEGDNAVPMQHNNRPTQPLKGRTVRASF
Sequence of Carbonic anhydrase 12 (O43570 whole entry): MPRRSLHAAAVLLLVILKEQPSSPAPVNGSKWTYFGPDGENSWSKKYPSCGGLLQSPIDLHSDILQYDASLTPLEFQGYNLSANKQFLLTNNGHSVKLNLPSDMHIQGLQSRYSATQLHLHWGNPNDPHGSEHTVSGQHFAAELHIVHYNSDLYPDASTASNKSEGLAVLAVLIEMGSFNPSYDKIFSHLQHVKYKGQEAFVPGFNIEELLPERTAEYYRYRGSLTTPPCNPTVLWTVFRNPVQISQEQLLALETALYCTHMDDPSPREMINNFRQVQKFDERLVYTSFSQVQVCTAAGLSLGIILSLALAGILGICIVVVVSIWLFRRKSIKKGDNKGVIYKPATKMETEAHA
Sequence of Carbonic anhydrase 13 (Q8N1Q1 whole entry): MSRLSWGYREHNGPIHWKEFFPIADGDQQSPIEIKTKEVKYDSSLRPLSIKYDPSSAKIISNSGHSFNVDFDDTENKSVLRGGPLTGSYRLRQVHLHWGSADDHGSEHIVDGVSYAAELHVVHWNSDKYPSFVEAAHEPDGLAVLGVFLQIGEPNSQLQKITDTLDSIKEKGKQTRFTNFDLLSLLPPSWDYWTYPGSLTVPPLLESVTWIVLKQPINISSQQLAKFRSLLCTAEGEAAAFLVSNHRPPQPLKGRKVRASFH
Sequence of Carbonic anhydrase 7 (P43166 whole entry): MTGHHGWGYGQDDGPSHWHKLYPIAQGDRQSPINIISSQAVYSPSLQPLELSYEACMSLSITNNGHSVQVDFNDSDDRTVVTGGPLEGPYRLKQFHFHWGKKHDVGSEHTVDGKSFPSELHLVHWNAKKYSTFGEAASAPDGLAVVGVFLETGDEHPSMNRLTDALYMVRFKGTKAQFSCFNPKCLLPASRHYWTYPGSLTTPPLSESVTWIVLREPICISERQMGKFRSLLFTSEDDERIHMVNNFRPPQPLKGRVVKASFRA

For `C=C(C)/C=C/c1c(OC)c2c(c3ccc(=O)oc13)OC(C)(C)C=C2`, the Ki on Carbonic anhydrase 9 was 0.62 µM; at Carbonic anhydrase 2, greater than 100 µM.
Turning to `COc1cc2ccc(=O)oc2c(O)c1OC`, the values for the Ki at Carbonic anhydrase 9 and at Carbonic anhydrase 2 were 0.85 µM and greater than 100 µM, respectively.
Regarding `C/C(=C\Cc1cc2ccc(=O)oc2cc1O)CO`, the Ki at Carbonic anhydrase 9 was 9.75 µM; at Carbonic anhydrase 2, 78.9 µM.
On to `COc1c(O)ccc2ccc(=O)oc12`, for which the Ki was 0.85 µM on Carbonic anhydrase 9 and greater than 100 µM on Carbonic anhydrase 2.
`COc1cc2ccc(=O)oc2c(OC)c1OC` [FRAXIDIN METHYL ETHER]: the Ki on Carbonic anhydrase 13 was 4.24 µM; at Carbonic anhydrase 12 it was 18.2 µM; on Carbonic anhydrase 9, 6.58 µM; on Carbonic anhydrase 7 it was 9.28 µM; on Carbonic anhydrase 2, greater than 100 µM; at Carbonic anhydrase 1 it was 0.0097 µM.
As to `COc1ccc(-c2c3n(c4c(=O)oc5cc(OC)c(O)cc5c24)CCc2cc(OS(=O)(=O)O)c(OC)cc2-3)cc1O`, the Ki on Carbonic anhydrase 9 was 3.27 µM; on Carbonic anhydrase 2, greater than 100 µM.
The matching figures for `C/C(=C\COc1ccc2ccc(=O)oc2c1)CCC(=O)C(C)(C)O`: 4.03 µM and greater than 100 µM.
As for `CC1(C)C=Cc2cc3ccc(=O)oc3cc2O1` [XANTHYLETIN], the Ki at Carbonic anhydrase 13 was 8.36 µM; on Carbonic anhydrase 12, 25.7 µM; at Carbonic anhydrase 9, 7.51 µM; on Carbonic anhydrase 7, 9.18 µM; on Carbonic anhydrase 2 it was greater than 100 µM; at Carbonic anhydrase 1, 21.5 µM.
`COc1cc2ccc(=O)oc2cc1O` [SCOPOLETIN]: the Ki on Carbonic anhydrase 13 is 17.8 µM; at Carbonic anhydrase 12 it was 4.05 µM; at Carbonic anhydrase 9, 0.96 µM; at Carbonic anhydrase 7, 8.71 µM; at Carbonic anhydrase 2, greater than 100 µM; on Carbonic anhydrase 1, 10.6 µM.
`C=C(C)C(COC(=O)c1cccnc1)c1c(OC)ccc2ccc(=O)oc12` (centres undefined): the values for the Ki at Carbonic anhydrase 9, on Carbonic anhydrase 7 and at Carbonic anhydrase 2 were 0.67 µM, greater than 100 µM and greater than 100 µM, respectively.
Take `COc1cc(OC)c2ccc(=O)oc2c1OC`: the Ki turned out to be 0.76 µM on Carbonic anhydrase 9 and 9.65 µM on Carbonic anhydrase 2.
In the case of `COc1cc2oc(=O)ccc2cc1O` [ISOSCOPOLETIN], the Ki on Carbonic anhydrase 13 is 5.27 µM; at Carbonic anhydrase 12, 4.14 µM; at Carbonic anhydrase 9, 7.37 µM; on Carbonic anhydrase 7, 23.8 µM; at Carbonic anhydrase 2 it was greater than 100 µM; on Carbonic anhydrase 1, 14 µM.
For `COc1cc2ccc(=O)oc2cc1O[C@@H]1O[C@H](CO)[C@@H](O)[C@H](O)[C@H]1O` [SCOPOLIN], the Ki on Carbonic anhydrase 9 is 8.72 µM; on Carbonic anhydrase 2, greater than 100 µM.
With `COc1cc2c(=O)oc3c(OC)c(OC)cc4c(=O)oc(c1O)c2c34`, the Ki on Carbonic anhydrase 9 is 17.4 µM; at Carbonic anhydrase 2 it was greater than 100 µM.
Turning to `C/C(=C\COc1ccc2ccc(=O)oc2c1)C1=CC(=O)C(C)(C)O1` [GEIPARVARIN], the Ki on Carbonic anhydrase 13 is 9.62 µM; on Carbonic anhydrase 12, 0.83 µM; on Carbonic anhydrase 9 it was 0.6 µM; at Carbonic anhydrase 7 it was 7.82 µM; at Carbonic anhydrase 2, greater than 100 µM; on Carbonic anhydrase 1 it was 9.75 µM.
Take `CC(CCOc1ccc2ccc(=O)oc2c1)C1=CC(=O)C(C)(C)O1` (centres undefined): the figures for the Ki on Carbonic anhydrase 9 and at Carbonic anhydrase 2 were 0.89 µM and 63.4 µM, respectively.
In the case of `COc1ccc2ccc(=O)oc2c1C(C=O)=C(C)C` [MURRALONGIN], the inhibitory constant (Ki) is 8.12 µM at Carbonic anhydrase 9 and greater than 100 µM on Carbonic anhydrase 2.
On to `COc1cc2oc(=O)ccc2c2c1C=CC(C)(C)O2` [ALLOXANTHOXYLETIN], for which the Ki at Carbonic anhydrase 9 is 3.5 µM; on Carbonic anhydrase 2 it was greater than 100 µM.
As for `COc1cc2ccc(=O)oc2c(O[C@@H]2O[C@H](CO)[C@@H](O)[C@H](O)[C@H]2O)c1O` [FRAXINE], the Ki on Carbonic anhydrase 13 was 9.8 µM; on Carbonic anhydrase 12 it was 7.45 µM; at Carbonic anhydrase 9, 0.37 µM; at Carbonic anhydrase 7, 3.87 µM; at Carbonic anhydrase 2, greater than 100 µM; at Carbonic anhydrase 1, 5.04 µM.
For `CCCc1cc(=O)oc2c3c(c4c(c12)OC(C)(C)C=C4)O[C@H](C)[C@@H](C)[C@H]3O` [(+)-CALANOLIDE B], the Ki at Carbonic anhydrase 13 came to 21 µM; on Carbonic anhydrase 12, 0.81 µM; at Carbonic anhydrase 7, 8.87 µM; at Carbonic anhydrase 2 it was 50.7 µM; on Carbonic anhydrase 1 it was 9.31 µM.
Take `COc1c2c(c3ccc(=O)oc3c1/C=C/C(C)(C)O)OC(C)(C)C=C2` [AVICENNOL]: the Ki at Carbonic anhydrase 13 was 29.3 µM; at Carbonic anhydrase 12, 0.77 µM; on Carbonic anhydrase 9, 0.78 µM; on Carbonic anhydrase 7 it was 8.98 µM; at Carbonic anhydrase 2 it was greater than 100 µM; at Carbonic anhydrase 1 it was 8.46 µM.
For `COc1ccc(-c2c3n(c4c(=O)oc5cc(O)c(OC)cc5c24)CCc2c-3cc(OC)c(OC)c2O)cc1O`, the Ki is 3.22 µM on Carbonic anhydrase 9 and greater than 100 µM on Carbonic anhydrase 2.
With `COc1c2c(cc3oc(=O)ccc13)OC(C)(C)C=C2` [XANTHOXYLETIN], the Ki at Carbonic anhydrase 13 is 3.15 µM; at Carbonic anhydrase 12, 0.96 µM; on Carbonic anhydrase 9 it was 0.74 µM; on Carbonic anhydrase 7 it was 6.27 µM; at Carbonic anhydrase 2, greater than 100 µM; on Carbonic anhydrase 1, 7.71 µM.
Turning to `COc1cc(-c2c3c4cc(OC)c(O)cc4oc(=O)c3n3ccc4c(OC)c(OC)c(OC)cc4c23)ccc1O`, the Ki at Carbonic anhydrase 9 was 6.33 µM; on Carbonic anhydrase 2, greater than 100 µM.
Turning to `O=c1ccc2ccccc2o1` [COUMARIN], the Ki on Carbonic anhydrase 13 and on Carbonic anhydrase 7 was greater than 1000 µM each time.
Regarding `COc1c2c(c(OC)c3oc(=O)ccc13)OC(C)(C)C=C2`, the Ki on Carbonic anhydrase 13 is greater than 100 µM; on Carbonic anhydrase 9 it was 0.86 µM; on Carbonic anhydrase 2, 49.3 µM.
As for `O=c1oc2c(O)c(O)cc3c(=O)oc4c(O)c(O)cc1c4c23` [ELLAGIC ACID], the Ki at Carbonic anhydrase 13 is 4.24 µM; at Carbonic anhydrase 12, 8.15 µM; at Carbonic anhydrase 9, 79.8 µM; at Carbonic anhydrase 7, 8.79 µM; at Carbonic anhydrase 1 it was 68.2 µM.
